According to patent publication US20230108906A1, “SUBSTITUTED BICYCLIC AND TRICYCLIC UREAS AND AMIDES, ANALOGUES THEREOF, AND METHODS USING SAME” (Arbutus Biopharma Corporation, priority 2019, published 2023):

What follows are molecules tested on HBV rcDNA in HepDE19 cells (assay: HepDE19 assay with bDNA quantitation of HBV rcDNA). Conditions: Hepatitis B virus, HepDE19, 168 h, inhibition of rcDNA formation in HepDE19 cells (HepG2 derived), Tet-free medium, 7 day incubation, Quantigene 2.0 bDNA readout, top concentration 25 μM; read-out: DE-19bDNA EC50.
Type: cell-based, hepatitis B virus (HBV)
Summary of the method: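 Cytotoxicity run on replicate plates (5,000 cells/well, 4 days, ATP luminescence, CC50), while antiviral plates (50,000 cells/well) received compound for 7 days after tetracycline withdrawal to induce HBV replication. Top dose 25 μM, 8 points, 0.5% DMSO; rcDNA by branched-DNA assay, % inhibition fitted (4-parameter) for EC50 and EC90.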

Row | Structure (SMILES) | EC50 [nM]
1 | CN(C(=O)Nc1ccc(F)c(Cl)c1)C1COCc2[nH]c(=O)c3ccc(F)cc3c21 (stereo not shown) [Compound 73, 3-(3-Chloro-4-fluorophenyl)-1-(9-fluoro-6-oxo-1,4,5,6-tetrahydro-2H-pyrano[3,4-c]isoquinolin-1-yl)-1-methylurea] | 20
2 | CCN(C(=O)Nc1ccc(F)c(Cl)c1)C1COCc2[nH]c(=O)c3ccc(F)cc3c21 (stereo not shown) [Compound 74, 3-(3-Chloro-4-fluorophenyl)-1-ethyl-1-(9-fluoro-6-oxo-1,4,5,6-tetrahydro-2H-pyrano[3,4-c]isoquinolin-1-yl)urea] | 20
3 | CCN(C(=O)Nc1ccc(F)c(Cl)c1)C1COCc2[nH]c(=O)c3cc(Cl)ccc3c21 (stereo not shown) [Compound 56, 3-(3-Chloro-4-fluorophenyl)-1-(8-chloro-6-oxo-1,4,5,6-tetrahydro-2H-pyrano[3,4-c]isoquinolin-1-yl)-1-ethylurea] | 50
4 | CN(C(=O)Nc1ccc(O)c(Cl)c1)[C@@H]1COCc2[nH]c(=O)c3cc(F)c(F)cc3c21 [Compound 148, (S)-3-(3-Chloro-4-hydroxyphenyl)-1-(8,9-difluoro-6-oxo-1,4,5,6-tetrahydro-2H-pyrano[3,4-c]isoquinolin-1-yl)-1-methylurea] | 760
5 | CN(C(=O)Nc1ccc(F)c(C(F)F)c1)[C@@H]1COCc2nc(OCCO)c3cc(F)c(F)cc3c21 [Compound 256, (S)-1-(8,9-Difluoro-6-(2-hydroxyethoxy)-1,4-dihydro-2H-pyrano[3,4-c]isoquinolin-1-yl)-3-(3-(difluoromethyl)-4-fluorophenyl)-1-methylurea] | 19
6 | CN(C(=O)NC1(C(F)(F)F)CC1)C1CCCc2[nH]c(=O)c3cc(F)c(F)cc3c21 (stereo not shown) [Compound 144, 1-(8,9-Difluoro-6-oxo-1,2,3,4,5,6-hexahydrophenanthridin-1-yl)-1-methyl-3-(1-(trifluoromethyl)cyclopropyl)urea] | 20000
7 | CN(C(=O)N1Cc2ccc(Cl)cc2C1)[C@@H]1COCc2[nH]c(=O)c3cc(F)c(F)cc3c21 [Compound 219, (S)-5-Chloro-N-(8,9-difluoro-6-oxo-1,4,5,6-tetrahydro-2H-pyrano[3,4-c]isoquinolin-1-yl)-N-methylisoindoline-2-carboxamide] | 5900
8 | CN(C(=O)Nc1ccc(F)c(C(F)F)c1)[C@@H]1COCc2[nH]c(=O)c3cc(F)c(F)cc3c21 (single isomer, unassigned) [Compound 126] | 10
9 | CCN(C(=O)Nc1ccc(F)c(Cl)c1)[C@@H]1COCc2[nH]c(=O)c3cc(F)ccc3c21 (single isomer, unassigned) [Compound 87] | 10
10 | CN(C(=O)Nc1ccc(F)c(Cl)c1)[C@@H]1COCc2[nH]c(=O)c3cc(F)c(F)cc3c21 (single isomer, unassigned) [Compound 72] | 10
11 | CN(C(=O)Nc1ccc(F)c(Cl)c1)C1CC(C)(C)Cc2[nH]c(=O)c3ccccc3c21 (stereo not shown) [Compound 27, 3-(3-Chloro-4-fluorophenyl)-1-(3,3-dimethyl-6-oxo-1,2,3,4,5,6-hexahydrophenanthridin-1-yl)-1-methylurea] | 12000

Same assay, conditions: inhibition of rcDNA formation in HepDE19 cells (HepG2 derived), Tet-free medium, 7 day incubation, Quantigene 2.0 bDNA readout, top concentration 25 μM; read-out: DE-19bDNA EC50

Row | Structure (SMILES) | EC50 [nM]
12 | CN(C(=O)Nc1ccc(F)c(F)c1)C1CCCc2[nH]c(=O)c3c(c21)COCC3 (single isomer, unassigned) [Compound 81, 3-(3,4-Difluorophenyl)-1-methyl-1-(5-oxo-3,4,5,6,7,8,9,10-octahydro-1H-pyrano[4,3-c]quinolin-10-yl)urea] | ≥ 25000
13 | CN(C(=O)Nc1ccc(F)c(C#N)c1)C1CSCc2[nH]c(=O)c3cc(F)ccc3c21 (single isomer, unassigned) [Compound 185, 3-(3-Cyano-4-fluorophenyl)-1-(8-fluoro-6-oxo-1,4,5,6-tetrahydro-2H-thiopyrano[3,4-c]isoquinolin-1-yl)-1-methylurea] | 3300
14 | CN(C(=O)Nc1ccc(F)c(Cl)c1)C1CS(=O)(=O)Cc2[nH]c(=O)c3cc(F)ccc3c21 (single isomer, unassigned) [Compound 198, 3-(3-Chloro-4-fluorophenyl)-1-(8-fluoro-3,3-dioxido-6-oxo-1,4,5,6-tetrahydro-2H-thiopyrano[3,4-c]isoquinolin-1-yl)-1-methylurea] | 3700
15 | CN(C(=O)Nc1ccc(F)c(Cl)c1)C1COCc2[nH]c(=O)c3ccccc3c21 (single isomer, unassigned) [Compound 37, 3-(3-Chloro-4-fluorophenyl)-1-methyl-1-(6-oxo-1,4,5,6-tetrahydro-2H-pyrano[3,4-c]isoquinolin-1-yl)urea] | 30
16 | CN(C(=O)Nc1ccc(F)c(Cl)c1)C1COCc2[nH]c(=O)c3ccccc3c21 (single isomer, unassigned) [Compound 36, 3-(3-Chloro-4-fluorophenyl)-1-methyl-1-(6-oxo-1,4,5,6-tetrahydro-2H-pyrano[3,4-c]isoquinolin-1-yl)urea] | 4600
17 | CC(C)CN(C(=O)Nc1ccc(F)c(C#N)c1)C1COCc2[nH]c(=O)c3cc(F)c(F)cc3c21 (single isomer, unassigned) [Compound 122, 3-(3-Cyano-4-fluorophenyl)-1-(8,9-difluoro-6-oxo-1,4,5,6-tetrahydro-2H-pyrano[3,4-c]isoquinolin-1-yl)-1-isobutylurea] | 120
18 | CN(C(=O)Nc1ccc(F)c(C#N)c1)C1CN(CCO)Cc2[nH]c(=O)c3cc(F)ccc3c21 (single isomer, unassigned) [Compound 172, 3-(3-Cyano-4-fluorophenyl)-1-(8-fluoro-3-(2-hydroxyethyl)-6-oxo-1,2,3,4,5,6-hexahydrobenzo[c][1,7]naphthyridin-1-yl)-1-methylurea] | 10000
19 | CN(C(=O)N1Cc2ccc(Br)cc2C1)C1CNCc2[nH]c(=O)c3cc(F)c(F)cc3c21 (single isomer, unassigned) [Compound 228, 5-Bromo-N-(8,9-difluoro-6-oxo-1,2,3,4,5,6-hexahydrobenzo[c][1,7]naphthyridin-1-yl)-N-methylisoindoline-2-carboxamide] | 15000
20 | CN(C(=O)Nc1ccc(F)c(F)c1)C1CNCc2[nH]c(=O)c3cc(F)c(F)cc3c21 (single isomer, unassigned) [Compound 192, 1-(8,9-Difluoro-6-oxo-1,2,3,4,5,6-hexahydrobenzo[c][1,7]naphthyridin-1-yl)-3-(3,4-difluorophenyl)-1-methylurea] | 40
21 | Cc1cc(NC(=O)N(CC(C)C)C2COCc3[nH]c(=O)c4cc(F)ccc4c32)ccc1F (single isomer, unassigned) [Compound 131, 3-(4-Fluoro-3-methylphenyl)-1-(8-fluoro-6-oxo-1,4,5,6-tetrahydro-2H-pyrano[3,4-c]isoquinolin-1-yl)-1-isobutylurea] | 10
22 | CC(C)CN(C(=O)Nc1ccc(F)c(C#N)c1)C1COCc2[nH]c(=O)c3cc(F)ccc3c21 (single isomer, unassigned) [Compound 115, 3-(3-Cyano-4-fluorophenyl)-1-(8-fluoro-6-oxo-1,4,5,6-tetrahydro-2H-pyrano[3,4-c]isoquinolin-1-yl)-1-isobutylurea] | 10
